For one test, the target named is HDAC6 (Homo sapiens, UniProt Q9UBN7). As to conditions: FIG. 2A. As for the experimental part:
(§1) The in vitro HDAC enzymatic assays were performed by Reaction Biology (Devault, PA).

A further test addresses HDAC8 (Homo sapiens, UniProt Q9BY41). The following applies: FIG. 2A. As for the experimental part:
as §1

The next test concerns class IIa HDACs. Put plainly: Global quantitative proteomics, change in protein abundance in Kelly cells. It is filed as cell-based, human. The following applies: 1 μM, 5 hours, vs DMSO, moderated t-test, FIG. 4B-4C. As for the experimental part: Cells were washed once with phosphate-buffered saline (PBS), harvested with CellstripperTM (Corning®), washed two additional times with PBS and snap frozen in liquid nitrogen. […] Proteins were precipitated using methanol/chloroform in Donovan et al., Elife 7:e38430 (2018). The precipitated protein was resuspended in 4 M Urea, 50 mM HEPES pH 7.4, followed by dilution to 1 M urea with the addition of 200 mM EPPS, pH 8. Proteins were first digested with LysC (1:50: enzyme:protein) for 12 hours at room temperature. The LysC digestion was diluted to 0.5 M Urea with 200 mM EPPS pH 8 followed by digestion with trypsin (1:50: enzyme:protein) for 6 hours at 37° C. Tandem mass tag (TMT) reagents (Thermo Fisher Scientific) were dissolved in anhydrous acetonitrile (ACN) according to manufacturer's instructions. Anhydrous ACN was added to each peptide sample to a final concentration of 30% v/v, and labeling was induced with the addition of TMT reagent to each sample at a ratio of 1:4 peptide:TMT label. The 11-plex labeling reactions were performed for 1.5 hours at room temperature and the reaction quenched by the addition of hydroxylamine to a final concentration of 0.3% for 15 minutes at room temperature. The sample channels were combined at a 1:1 ratio, desalted using C18 solid phase extraction cartridges (Waters®) and analyzed by LC-MS for channel ratio comparison. Samples were then combined using the adjusted volumes determined in the channel ratio analysis and dried down in a speed vacuum. The combined sample was then resuspended in 1% formic acid, and acidified (pH 2-3) before being subjected to desalting with C18 SPE (Sep-Pak®-, Waters®). […] Proteome Discoverer 2.2 (Thermo Fisher Scientific) was used for .RAW file processing and controlling peptide and protein level false discovery rates, assembling proteins from peptides, and protein quantification from peptides. […] TMT reporter ion intensities were measured using a 0.003 Da window around the theoretical m/z for each reporter ion in the MS3 scan. […]

The target in the next test is HDAC4 (Homo sapiens, UniProt P56524). The test is described as above. The class given is cell-based. More on the design: endogenous in cells; host or cells: Kelly cells. The following applies: 1 μM, 5-hour treatment, vs DMSO, FIG. 3. As for the experimental part:
(§2) Cells were washed once with phosphate-buffered saline (PBS), harvested with CellstripperTM (Corning®), washed two additional times with PBS and snap frozen in liquid nitrogen. […] Proteins were precipitated using methanol/chloroform in Donovan et al., Elife 7:e38430 (2018). The precipitated protein was resuspended in 4 M Urea, 50 mM HEPES pH 7.4, followed by dilution to 1 M urea with the addition of 200 mM EPPS, pH 8. Proteins were first digested with LysC (1:50: enzyme:protein) for 12 hours at room temperature. The LysC digestion was diluted to 0.5 M Urea with 200 mM EPPS pH 8 followed by digestion with trypsin (1:50: enzyme:protein) for 6 hours at 37° C. Tandem mass tag (TMT) reagents (Thermo Fisher Scientific) were dissolved in anhydrous acetonitrile (ACN) according to manufacturer's instructions. Anhydrous ACN was added to each peptide sample to a final concentration of 30% v/v, and labeling was induced with the addition of TMT reagent to each sample at a ratio of 1:4 peptide:TMT label. The 11-plex labeling reactions were performed for 1.5 hours at room temperature and the reaction quenched by the addition of hydroxylamine to a final concentration of 0.3% for 15 minutes at room temperature. The sample channels were combined at a 1:1 ratio, desalted using C18 solid phase extraction cartridges (Waters®) and analyzed by LC-MS for channel ratio comparison. Samples were then combined using the adjusted volumes determined in the channel ratio analysis and dried down in a speed vacuum. The combined sample was then resuspended in 1% formic acid, and acidified (pH 2-3) before being subjected to desalting with C18 SPE (Sep-Pak®-, Waters®). […] The 96 resulting fractions were then pooled in a non-contiguous manner into 24 fractions and these fractions were used for subsequent mass spectrometry analysis. Data were collected using an Orbitrap FusionTM LumosTM mass spectrometer (Thermo Fisher Scientific, San Jose, CA, USA) coupled with a […] pump (Thermo Fisher Scientific). Peptides were separated on an EasySprayTM ES803.rev2 75 μm inner diameter microcapillary column (ThermoFisher Scientific). Peptides were separated using a 190 min gradient of 6-27% acetonitrile in 1.0% formic acid with a flow rate of 300 nL/min. Each analysis used an MS3-based TMT method as described in McAlister et al., Anal. Chem. 86(14):7150-7158 (2014). The data were acquired using a mass range of m/z 340-1350, resolution 120,000, automatic gain control (AGC) target 1×10^6, maximum injection time 100 ms, dynamic exclusion of 120 seconds for the peptide measurements in the Orbitrap FusionTM LumosTM mass spectrometer. Data dependent MS2 spectra were acquired in the ion trap with a normalized collision energy (NCE) set at 55%, AGC target set to 1.5×10^5 and a maximum injection time of 150 ms. MS3 scans were acquired in the Orbitrap FusionTM LumosTM mass spectrometer with a higher energy collision dissociation (HCD) set to 55%, AGC target set to 1.5×10^5, maximum injection time of 150 ms, resolution at 50,000 and with a maximum synchronous precursor selection (SPS) precursors set to 10. Proteome Discoverer 2.2 (Thermo Fisher Scientific) was used for .RAW file processing and controlling peptide and protein level false discovery rates, assembling proteins from peptides, and protein quantification from peptides. MS/MS spectra were searched against a Swissprot human database (December 2016) with both the forward and reverse sequences. […] TMT reporter ion intensities were measured using a 0.003 Da window around the theoretical m/z for each reporter ion in the MS3 scan. […] Reporter ion intensities were normalized and scaled using in-house scripts in the R framework. Statistical analysis was carried out using the limma package within the R framework as described in Ritchie et al., Nucleic Acids Res. 43(7):e47 (2015).

The next test concerns the target HDAC5 (Homo sapiens, UniProt Q9UQL6). Described as above. As to conditions: 1 μM, 5-hour treatment, vs DMSO, FIG. 3. It is filed as cell-based. More on the design: endogenous in cells; host or cells: Kelly cells. As for the experimental part:
as §2

The record followed here is patent US20240246956A1, “CLASS IIA HISTONE DEACETYLASE (HDAC) DEGRADER LIGANDS AND METHODS OF USE THEREOF” (DANA-FARBER CANCER INSTITUTE, INC., priority 2021, published 2024).

Molecules are shown by their SMILES.

HDAC4, sequence (P56524 whole entry): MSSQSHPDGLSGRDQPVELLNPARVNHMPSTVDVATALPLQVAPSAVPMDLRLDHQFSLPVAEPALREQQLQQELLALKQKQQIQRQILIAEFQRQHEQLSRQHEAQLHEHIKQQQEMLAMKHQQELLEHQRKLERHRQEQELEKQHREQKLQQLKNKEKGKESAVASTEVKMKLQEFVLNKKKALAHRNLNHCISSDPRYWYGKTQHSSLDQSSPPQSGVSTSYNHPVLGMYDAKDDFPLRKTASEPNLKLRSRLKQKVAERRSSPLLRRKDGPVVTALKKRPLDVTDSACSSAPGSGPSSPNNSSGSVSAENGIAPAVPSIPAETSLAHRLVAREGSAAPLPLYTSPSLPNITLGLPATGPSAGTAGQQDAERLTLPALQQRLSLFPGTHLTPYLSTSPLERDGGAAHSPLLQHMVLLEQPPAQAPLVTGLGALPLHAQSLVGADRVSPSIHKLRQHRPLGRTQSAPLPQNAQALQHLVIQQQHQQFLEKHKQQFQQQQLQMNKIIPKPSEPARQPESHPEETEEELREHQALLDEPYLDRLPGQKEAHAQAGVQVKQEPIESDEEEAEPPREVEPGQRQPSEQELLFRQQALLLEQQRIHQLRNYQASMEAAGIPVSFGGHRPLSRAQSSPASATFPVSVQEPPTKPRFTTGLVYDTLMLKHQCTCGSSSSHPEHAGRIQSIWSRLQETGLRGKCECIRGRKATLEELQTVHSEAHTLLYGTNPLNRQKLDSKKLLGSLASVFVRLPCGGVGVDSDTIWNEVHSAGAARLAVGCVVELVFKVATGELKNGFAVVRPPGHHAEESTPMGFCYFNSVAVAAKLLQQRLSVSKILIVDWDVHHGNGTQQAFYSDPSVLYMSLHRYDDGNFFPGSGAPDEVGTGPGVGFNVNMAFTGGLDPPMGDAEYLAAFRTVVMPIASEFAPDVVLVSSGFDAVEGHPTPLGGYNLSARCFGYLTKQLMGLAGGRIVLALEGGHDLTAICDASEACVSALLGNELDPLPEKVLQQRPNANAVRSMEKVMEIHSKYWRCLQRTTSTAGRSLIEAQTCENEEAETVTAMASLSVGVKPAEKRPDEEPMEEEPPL
HDAC5, sequence (Q9UQL6 whole entry): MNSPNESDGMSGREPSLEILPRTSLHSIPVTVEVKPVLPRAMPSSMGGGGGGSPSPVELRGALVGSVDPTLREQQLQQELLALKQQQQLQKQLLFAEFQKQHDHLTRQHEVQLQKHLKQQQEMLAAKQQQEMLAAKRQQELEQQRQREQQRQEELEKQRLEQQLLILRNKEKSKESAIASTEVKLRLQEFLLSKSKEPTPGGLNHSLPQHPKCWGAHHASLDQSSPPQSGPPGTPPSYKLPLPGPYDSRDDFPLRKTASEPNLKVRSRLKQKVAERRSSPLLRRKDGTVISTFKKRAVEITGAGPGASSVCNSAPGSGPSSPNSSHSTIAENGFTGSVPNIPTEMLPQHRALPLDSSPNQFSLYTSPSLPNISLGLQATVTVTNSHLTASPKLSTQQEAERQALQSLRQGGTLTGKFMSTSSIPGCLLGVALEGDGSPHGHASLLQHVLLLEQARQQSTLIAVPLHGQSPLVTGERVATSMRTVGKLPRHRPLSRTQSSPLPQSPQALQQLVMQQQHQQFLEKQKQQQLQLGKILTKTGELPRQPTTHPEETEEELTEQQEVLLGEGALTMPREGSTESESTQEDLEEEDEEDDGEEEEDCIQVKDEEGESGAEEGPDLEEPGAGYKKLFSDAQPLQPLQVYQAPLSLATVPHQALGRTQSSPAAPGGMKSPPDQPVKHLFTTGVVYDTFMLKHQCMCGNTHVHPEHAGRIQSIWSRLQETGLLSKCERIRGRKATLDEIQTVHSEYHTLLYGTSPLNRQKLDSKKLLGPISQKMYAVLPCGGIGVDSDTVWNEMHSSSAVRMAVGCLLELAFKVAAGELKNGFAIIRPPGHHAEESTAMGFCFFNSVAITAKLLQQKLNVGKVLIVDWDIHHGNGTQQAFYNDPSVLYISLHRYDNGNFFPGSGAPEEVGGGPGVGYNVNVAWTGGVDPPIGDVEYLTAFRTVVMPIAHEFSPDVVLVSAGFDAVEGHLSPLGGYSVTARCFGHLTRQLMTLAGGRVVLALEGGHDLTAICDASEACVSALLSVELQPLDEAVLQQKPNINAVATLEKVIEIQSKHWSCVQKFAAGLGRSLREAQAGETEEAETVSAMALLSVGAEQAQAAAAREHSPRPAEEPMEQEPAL
HDAC6, sequence (Q9UBN7 whole entry): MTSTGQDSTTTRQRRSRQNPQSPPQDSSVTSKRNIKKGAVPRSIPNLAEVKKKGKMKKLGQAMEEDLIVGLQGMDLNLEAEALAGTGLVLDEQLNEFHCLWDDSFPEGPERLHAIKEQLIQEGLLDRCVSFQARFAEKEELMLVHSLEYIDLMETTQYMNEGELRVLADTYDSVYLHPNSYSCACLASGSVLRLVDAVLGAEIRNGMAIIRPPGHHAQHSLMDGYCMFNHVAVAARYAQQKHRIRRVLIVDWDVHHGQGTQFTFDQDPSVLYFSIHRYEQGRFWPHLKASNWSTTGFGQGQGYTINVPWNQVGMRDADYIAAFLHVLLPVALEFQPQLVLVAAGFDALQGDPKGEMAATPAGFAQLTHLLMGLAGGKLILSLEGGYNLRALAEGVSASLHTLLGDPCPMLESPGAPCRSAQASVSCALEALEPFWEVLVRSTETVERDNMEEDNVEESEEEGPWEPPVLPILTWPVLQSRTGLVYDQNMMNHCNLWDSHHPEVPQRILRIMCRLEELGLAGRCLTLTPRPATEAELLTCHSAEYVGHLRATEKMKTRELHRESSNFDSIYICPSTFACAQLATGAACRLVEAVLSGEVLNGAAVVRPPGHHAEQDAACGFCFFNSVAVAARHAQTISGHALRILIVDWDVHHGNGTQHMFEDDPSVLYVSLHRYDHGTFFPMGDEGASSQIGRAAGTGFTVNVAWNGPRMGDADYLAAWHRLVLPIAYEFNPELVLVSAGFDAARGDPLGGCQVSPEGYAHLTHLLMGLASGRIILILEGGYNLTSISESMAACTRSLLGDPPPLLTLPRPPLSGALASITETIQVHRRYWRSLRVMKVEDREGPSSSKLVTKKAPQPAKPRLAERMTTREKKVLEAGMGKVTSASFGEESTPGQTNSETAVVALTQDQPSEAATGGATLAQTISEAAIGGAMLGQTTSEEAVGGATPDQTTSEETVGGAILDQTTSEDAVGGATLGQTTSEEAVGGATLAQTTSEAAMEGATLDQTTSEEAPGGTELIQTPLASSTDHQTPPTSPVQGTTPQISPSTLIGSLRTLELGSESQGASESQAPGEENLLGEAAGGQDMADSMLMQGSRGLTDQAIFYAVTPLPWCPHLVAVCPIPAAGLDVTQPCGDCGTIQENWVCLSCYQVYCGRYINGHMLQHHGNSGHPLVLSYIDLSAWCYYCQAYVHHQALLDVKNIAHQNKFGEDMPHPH
HDAC8, sequence (Q9BY41 whole entry): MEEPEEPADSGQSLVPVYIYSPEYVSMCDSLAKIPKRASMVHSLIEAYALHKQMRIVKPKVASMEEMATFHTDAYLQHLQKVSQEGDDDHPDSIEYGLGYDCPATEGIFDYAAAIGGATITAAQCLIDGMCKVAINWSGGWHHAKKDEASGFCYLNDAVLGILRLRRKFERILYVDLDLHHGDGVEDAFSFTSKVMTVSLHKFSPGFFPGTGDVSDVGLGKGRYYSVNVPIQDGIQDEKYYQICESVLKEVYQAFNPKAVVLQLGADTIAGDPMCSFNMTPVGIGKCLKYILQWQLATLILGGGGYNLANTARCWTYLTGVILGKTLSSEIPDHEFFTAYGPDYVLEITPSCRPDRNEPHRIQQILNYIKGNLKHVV

Regarding `O=C1CCC(N2C(=O)c3cccc(NCCCCCCN4CCC(CNC(=O)c5cccc(-c6noc(C(F)(F)F)n6)c5)(c5nc(-c6ccccc6)cs5)CC4)c3C2=O)C(=O)N1` (centres unmarked) [Compound 1], the “inhibition of HDAC6” value against HDAC6 was “did not inhibit”. Also, the “inhibition of HDAC8” value against HDAC8 is “did not inhibit”.

As for `CCN(CCNc1cccc2c1C(=O)N(C1CCC(=O)NC1=O)C2=O)C[C@@H](C)NC(=O)c1ccc(-c2noc(C(F)(F)F)n2)cc1` (stereo partly drawn) [Compound 16, N-((2R)-1-((2-((2-(2,6-dioxopiperidin-3-yl)-1,3-dioxoisoindolin-4-yl)amino)ethyl)(ethyl)amino)propan-2-yl)-4-(5-(trifluoromethyl)-1,2,4-oxadiazol-3-yl)benzamide], in the test with class IIa HDACs, the “class IIa HDAC levels (relative protein abundance)” value is “significant reduction”. In addition, the “protein expression level of HDAC4” value at HDAC4 is “reduction in protein expression level”. Moreover, the “protein expression level of HDAC5” value on HDAC5 is on record as “reduction in protein expression level”.
